Data as given in publication PMC5940828, “Analysis of β-tubulin-carbendazim interaction reveals that binding site for MBC fungicides does not include residues involved in fungicide resistance” (Scientific Reports, 2018).

Target: T1, P. xanthii β-tubulin (TUB2), MBC-sensitive (E198) (Podosphaera fusca, UniProt M4QC09)
T1 construct: β-tubulin alone without α-tubulin; E198 allele
Assay: intrinsic tryptophan fluorescence quenching, modified Stern-Volmer
Format: binding
Conditions: double-log; n = 1.41; excitation 295 nm; carbendazim dosed as commercial 50% water-dispersible formulation (Maypon Flow)
From the text: intrinsic tryptophan fluorescence quenching, modified Stern-Volmer on P. xanthii β-tubulin (TUB2), MBC-sensitive (E198)

T1 sequence (M4QC09 1-447): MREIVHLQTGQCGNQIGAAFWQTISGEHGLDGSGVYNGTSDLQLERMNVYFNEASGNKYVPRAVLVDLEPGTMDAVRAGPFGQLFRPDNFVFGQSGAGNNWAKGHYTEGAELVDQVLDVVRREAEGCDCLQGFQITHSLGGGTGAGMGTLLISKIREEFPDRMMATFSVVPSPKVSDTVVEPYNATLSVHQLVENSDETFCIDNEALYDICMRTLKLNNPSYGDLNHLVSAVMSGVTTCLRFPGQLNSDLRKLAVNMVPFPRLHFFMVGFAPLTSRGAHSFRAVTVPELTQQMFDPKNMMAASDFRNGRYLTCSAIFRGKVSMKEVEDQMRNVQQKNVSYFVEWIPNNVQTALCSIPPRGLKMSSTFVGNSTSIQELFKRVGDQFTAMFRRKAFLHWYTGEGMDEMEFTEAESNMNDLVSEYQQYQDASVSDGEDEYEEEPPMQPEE

In the case of `COC(=O)Nc1nc2ccccc2[nH]1` [carbendazim, methyl-2-benzimidazole carbamate], the “K^b” value is reported as 1380 M⁻¹.
